Laboratory results reported in patent US20250160332A1, “HERBICIDAL COMBINATIONS AND A METHOD FOR CONTROLLING UNDESIRED VEGETATION” (UPL MAURITIUS LIMITED, priority 2022, published 2025).

What was measured:
Amaranthus hybridus = test: Post-emergence herbicidal activity, efficacy on Amaranthus hybridus (Colby method); assay type: in vivo
Description: (§1) The following products were used for evaluating the weed control efficacy of present herbicidal combinations.
(§2) Methodology: Trials were carried out to evaluate the efficacy of the combinations comprising L-glufosinate ammonium and additional herbicides on Amaranthus genus weeds.
(§3) The soil used was sandy clay loam-sand: 68.0%; silt: 8.0%; clay: 24.0%.
(§4) All treatments were in 3 replications per treatment with a spray volume of 150 L/ha.
(§5) Efficacy Evaluation: The expected efficacy of the combination comprising L-glufosinate ammonium and additional herbicides was calculated using the well-established Colby method.
In the Colby method, the expected (or predicted) response of a combination of herbicides is calculated by taking the product of the observed response for each individual component of the combination when applied alone, divided by 100, and subtracting this value from the sum of the observed response for each component when applied alone. An unexpected enhancement in efficacy of the combination is then determined by comparing the observed response of the combination to the expected (or predicted) response as calculated from the observed response of each individual component alone. If the observed response of the combination is greater than the expected (or predicted) response, or stated conversely, if the difference between the observed and expected response is greater than zero, then the combination is said to be synergistic or unexpectedly effective (Colby, S. R., Weeds, 1967(15), p. 20-22). The Colby method requires only a single dose of each herbicide applied alone and the mixture of both doses. The formula used to calculate the expected efficacy (EE) which was compared with the observed efficacy (OE) to determine the efficacy of the present disclosure is explained herein:
The expected efficacy for a combination of two active ingredients is as follows:
The expected efficacy for a combination of three active ingredients is as follows:
[formula] • wherein, • A=Observed efficacy of active ingredient A at the same concentration as used in the mixture. • B=Observed efficacy of the active ingredient B at the same concentration as used in the mixture. • C=Observed efficacy of the active ingredient C at the same concentration as used in the mixture.
Experiment was conducted to assess the efficacy of herbicidal combination comprising L-glufosinate ammonium (glufosinate-P-ammonium) and saflufenacil to control the weed, Amaranthus hybridus.
The percentage efficacy was calculated after 3 days of applications (DAA). The target weed was Amaranthus hybridus, and the concentration of the herbicide and the results are recorded in Table 7.
Experiment was conducted to assess the efficacy of herbicidal combination comprising L-glufosinate ammonium, saflufenacil and triclopyr to control the weed Amaranthus hybridus.
The percentage efficacy was calculated after 3 DAA. The target weed was Amaranthus hybridus, and the concentration of the herbicide and the results are recorded in Table 8.
Experiment was conducted to assess the efficacy of herbicidal combination comprising L-glufosinate ammonium, saflufenacil and 2,4-D Choline to control the weed, Amaranthus hybridus.
The percentage efficacy was calculated after 3 DAA. The target weed was Amaranthus hybridus, and the concentration of the herbicide and the results are recorded in Table 9.
Experiment was conducted to assess the efficacy of herbicidal combination comprising L-glufosinate ammonium and quizalofop-ethyl to control the weed, Amaranthus hybridus.
The percentage efficacy was calculated after 3 DAA and 14 DAA. The target weed was Amaranthus hybridus, and the concentration of the herbicide and the results are recorded in Table 10.
Experiment was conducted to assess the efficacy of herbicidal combination comprising L-glufosinate ammonium and quizalofop-p-tefuryl to control the weed, Amaranthus hybridus
The percentage efficacy was calculated after 3 DAA and 14 DAA.

Amaranthus viridis = test: Post-emergence herbicidal activity, efficacy on Amaranthus viridis (Colby method); assay type: in vivo
Description: as §1, §2, §3, §4, §5
In the Colby method, the expected (or predicted) response of a combination of herbicides is calculated by taking the product of the observed response for each individual component of the combination when applied alone, divided by 100, and subtracting this value from the sum of the observed response for each component when applied alone. An unexpected enhancement in efficacy of the combination is then determined by comparing the observed response of the combination to the expected (or predicted) response as calculated from the observed response of each individual component alone. […]
The percentage efficacy was calculated after 3 DAA and 7 DAA. The target weed was Amaranthus viridis, and the concentration of the herbicide and the results are recorded in Table 12. […]

Compound: CC(C)N(C)S(=O)(=O)NC(=O)c1cc(-n2c(=O)cc(C(F)(F)F)n(C)c2=O)c(F)cc1Cl [Saflufenacil]
- Observed efficacy (%) of Saflufenacil (30 g a.i./ha) (Amaranthus hybridus; Table 7, 3 DAA): 50%
- Observed efficacy (%) of Saflufenacil (30 g a.i./ha) (Amaranthus hybridus; Table 8, 3 DAA): 50%
- Observed efficacy (%) of Saflufenacil (30 g a.i./ha) (Amaranthus hybridus; Table 9, 3 DAA): 50%

Compound: CCOC(=O)C(C)Oc1ccc(Oc2cnc3cc(Cl)ccc3n2)cc1 (centres unmarked) [quizalofop-ethyl, Quizalofop-ethyl]
- Observed efficacy (%) of quizalofop-ethyl (25 g a.i./ha) (Amaranthus hybridus; Table 10, 3 DAA): 0%
- Observed efficacy (%) of quizalofop-ethyl (25 g a.i./ha) (Amaranthus hybridus; Table 10, 14 DAA): 0%

Compound: O=C(O)COc1nc(Cl)c(Cl)cc1Cl [Triclopyr]
- Observed efficacy (%) of Triclopyr (228 g a.i./ha) (Amaranthus hybridus; Table 8, 3 DAA, 228 g a.i./ha): 95%

Compound: CS(=O)(=O)c1ccc(C(=O)C2C(=O)CCCC2=O)c([N+](=O)[O-])c1 [Mesotrione]
- Observed efficacy (%) of Mesotrione (100 g a.i./ha) (Amaranthus viridis; Table 12, 3 DAA): 10%
- Observed efficacy (%) of Mesotrione (100 g a.i./ha) (Amaranthus viridis; Table 12, 7 DAA): 30%

Compound: C[C@@H](Oc1ccc(Oc2cnc3cc(Cl)ccc3n2)cc1)C(=O)OCC1CCCO1 (some centres unmarked) [quizalofop-p-tefuryl, Quizalofop-p-tefuryl]
- Observed efficacy (%) of quizalofop-p-tefuryl (25 g a.i./ha) (Amaranthus hybridus; Table 11, 3 DAA): 0%
- Observed efficacy (%) of quizalofop-p-tefuryl (25 g a.i./ha) (Amaranthus hybridus; Table 11, 14 DAA): 0%

Compound: C[N+](C)(C)CCO.O=C([O-])COc1ccc(Cl)cc1Cl [2,4-D Choline]
- Observed efficacy (%) of 2,4-D Choline (228 g a.i./ha) (Amaranthus hybridus; Table 9, 3 DAA, 228 g a.i./ha): 95%
